Experimental data published in PubChem BioAssay (NCI).
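Each compound was tested at five concentrations against cells in 96-well plates for 48 hours. TGI is the concentration that stops growth completely.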

Assays:
Test in all cases: NCI anticancer screen, dose series, 48 h
KM12 colon = test system: KM12 colon
SF-295 CNS = test system: SF-295 CNS
HL-60(TB) leukemia = test system: HL-60(TB) leukemia
MDA-N = test system: MDA-N
K-562 leukemia = test system: K-562 leukemia
SK-MEL-2 melanoma = test system: SK-MEL-2 melanoma
OVCAR-4 ovarian = test system: OVCAR-4 ovarian
IGROV1 ovarian = test system: IGROV1 ovarian
UACC-257 melanoma = test system: UACC-257 melanoma
NCI/ADR-RES ovarian = test system: NCI/ADR-RES ovarian
NCI-H460 lung = test system: NCI-H460 lung
CAKI-1 renal = test system: CAKI-1 renal
SN12C renal = test system: SN12C renal
UO-31 renal = test system: UO-31 renal
NCI-H522 lung = test system: NCI-H522 lung
SW-620 colon = test system: SW-620 colon
MDA-MB-231 breast = test system: MDA-MB-231 breast
MDA-MB-435 = test system: MDA-MB-435
MOLT-4 leukemia = test system: MOLT-4 leukemia
BT-549 breast = test system: BT-549 breast
TK-10 renal = test system: TK-10 renal
MCF7 breast = test system: MCF7 breast
RPMI-8226 leukemia = test system: RPMI-8226 leukemia
HOP-62 NSCLC = test system: HOP-62 NSCLC
NCI-H23 lung = test system: NCI-H23 lung
SNB-19 CNS = test system: SNB-19 CNS
SK-MEL-28 melanoma = test system: SK-MEL-28 melanoma
HS 578T breast = test system: HS 578T breast
M14 melanoma = test system: M14 melanoma
U251 CNS = test system: U251 CNS
HCT-116 colon = test system: HCT-116 colon
RXF 393 renal = test system: RXF 393 renal
HT29 colon = test system: HT29 colon
SK-MEL-5 melanoma = test system: SK-MEL-5 melanoma
SR leukemia = test system: SR leukemia
ACHN renal = test system: ACHN renal
OVCAR-8 ovarian = test system: OVCAR-8 ovarian
SF-268 CNS = test system: SF-268 CNS
OVCAR-3 ovarian = test system: OVCAR-3 ovarian
EKVX NSCLC = test system: EKVX NSCLC
A498 renal = test system: A498 renal
T-47D breast = test system: T-47D breast
CCRF-CEM leukemia = test system: CCRF-CEM leukemia
DU-145 prostate = test system: DU-145 prostate
LOX IMVI melanoma = test system: LOX IMVI melanoma
UACC-62 melanoma = test system: UACC-62 melanoma
SF-539 CNS = test system: SF-539 CNS
PC-3 prostate = test system: PC-3 prostate
HCT-15 colon = test system: HCT-15 colon
786-0 renal = test system: 786-0 renal
COLO 205 colon = test system: COLO 205 colon
SK-OV-3 ovarian = test system: SK-OV-3 ovarian
MALME-3M melanoma = test system: MALME-3M melanoma
OVCAR-5 ovarian = test system: OVCAR-5 ovarian
A549 NSCLC = test system: A549 NSCLC
HOP-92 NSCLC = test system: HOP-92 NSCLC
SNB-75 CNS = test system: SNB-75 CNS

SMILES: Cc1cc(C)n(CN(CCCCO)Cn2nc(C)cc2C)n1
- TGI (KM12 colon): 60.6 µM
- TGI (SF-295 CNS): > 100 µM
- TGI (HL-60(TB) leukemia): 79 µM
- TGI (MDA-N): 35.1 µM
- TGI (K-562 leukemia): 52.7 µM
- TGI (SK-MEL-2 melanoma): 41.7 µM
- TGI (OVCAR-4 ovarian): 61.9 µM
- TGI (IGROV1 ovarian): 73.4 µM
- TGI (UACC-257 melanoma): 80 µM
- TGI (NCI/ADR-RES ovarian): 39 µM
- TGI (NCI-H460 lung): > 100 µM
- TGI (CAKI-1 renal): 99.5 µM
- TGI (SN12C renal): 67 µM
- TGI (UO-31 renal): 69.1 µM
- TGI (NCI-H522 lung): 48.1 µM
- TGI (SW-620 colon): 63 µM
- TGI (MDA-MB-231 breast): 78.6 µM
- TGI (MDA-MB-435): 38.4 µM
- TGI (MOLT-4 leukemia): 50.7 µM
- TGI (BT-549 breast): 71.2 µM
- TGI (TK-10 renal): > 100 µM
- TGI (MCF7 breast): 68.3 µM
- TGI (RPMI-8226 leukemia): 20.3 µM
- TGI (HOP-62 NSCLC): 47.6 µM
- TGI (NCI-H23 lung): 50.6 µM
- TGI (SNB-19 CNS): > 100 µM
- TGI (SK-MEL-28 melanoma): 39.3 µM
- TGI (HS 578T breast): > 100 µM
- TGI (M14 melanoma): 33.9 µM
- TGI (U251 CNS): 49.9 µM
- TGI (HCT-116 colon): 36.4 µM
- TGI (RXF 393 renal): 39 µM
- TGI (HT29 colon): 37.1 µM
- TGI (SK-MEL-5 melanoma): > 100 µM
- TGI (SR leukemia): 28.7 µM
- TGI (ACHN renal): 39.4 µM
- TGI (OVCAR-8 ovarian): 41.7 µM
- TGI (SF-268 CNS): 65.2 µM
- TGI (OVCAR-3 ovarian): 58 µM
- TGI (EKVX NSCLC): 76.3 µM
- TGI (A498 renal): > 100 µM
- TGI (T-47D breast): 66.5 µM
- TGI (CCRF-CEM leukemia): 1.74 µM
- TGI (DU-145 prostate): 53.6 µM
- TGI (LOX IMVI melanoma): 51.2 µM
- TGI (UACC-62 melanoma): 36.9 µM
- TGI (SF-539 CNS): 36.2 µM
- TGI (PC-3 prostate): 57.7 µM
- TGI (HCT-15 colon): 34.7 µM
- TGI (786-0 renal): 36.7 µM
- TGI (COLO 205 colon): 31.7 µM
- TGI (SK-OV-3 ovarian): > 100 µM
- TGI (MALME-3M melanoma): 57.3 µM
- TGI (OVCAR-5 ovarian): 51.1 µM
- TGI (A549 NSCLC): > 100 µM
- TGI (HOP-92 NSCLC): 81 µM

SMILES: COc1c(O)cc2c(c1O)C(=O)C(Cc1ccc(O)cc1)CO2 (configuration not stated)
- TGI (KM12 colon): > 100 µM
- TGI (SF-295 CNS): > 100 µM
- TGI (HL-60(TB) leukemia): > 100 µM
- TGI (MDA-N): > 100 µM
- TGI (K-562 leukemia): > 100 µM
- TGI (SK-MEL-2 melanoma): > 100 µM
- TGI (OVCAR-4 ovarian): > 100 µM
- TGI (IGROV1 ovarian): > 100 µM
- TGI (UACC-257 melanoma): > 100 µM
- TGI (NCI/ADR-RES ovarian): > 100 µM
- TGI (NCI-H460 lung): > 100 µM
- TGI (CAKI-1 renal): > 100 µM
- TGI (SN12C renal): > 100 µM
- TGI (UO-31 renal): > 100 µM
- TGI (NCI-H522 lung): > 100 µM
- TGI (SW-620 colon): > 100 µM
- TGI (MDA-MB-231 breast): > 100 µM
- TGI (MDA-MB-435): 76.8 µM
- TGI (MOLT-4 leukemia): > 100 µM
- TGI (BT-549 breast): > 100 µM
- TGI (TK-10 renal): > 100 µM
- TGI (MCF7 breast): > 100 µM
- TGI (RPMI-8226 leukemia): > 100 µM
- TGI (HOP-62 NSCLC): > 100 µM
- TGI (NCI-H23 lung): > 100 µM
- TGI (SNB-19 CNS): > 100 µM
- TGI (SK-MEL-28 melanoma): > 100 µM
- TGI (HS 578T breast): > 100 µM
- TGI (M14 melanoma): > 100 µM
- TGI (U251 CNS): > 100 µM
- TGI (HCT-116 colon): > 100 µM
- TGI (RXF 393 renal): > 100 µM
- TGI (HT29 colon): > 100 µM
- TGI (SK-MEL-5 melanoma): > 100 µM
- TGI (SR leukemia): > 100 µM
- TGI (ACHN renal): > 100 µM
- TGI (OVCAR-8 ovarian): > 100 µM
- TGI (SF-268 CNS): > 100 µM
- TGI (OVCAR-3 ovarian): > 100 µM
- TGI (EKVX NSCLC): > 100 µM
- TGI (A498 renal): > 100 µM
- TGI (T-47D breast): > 100 µM
- TGI (DU-145 prostate): > 100 µM
- TGI (LOX IMVI melanoma): > 100 µM
- TGI (UACC-62 melanoma): > 100 µM
- TGI (SF-539 CNS): > 100 µM
- TGI (PC-3 prostate): > 100 µM
- TGI (HCT-15 colon): > 100 µM
- TGI (SNB-75 CNS): 91.9 µM
- TGI (786-0 renal): > 100 µM
- TGI (COLO 205 colon): > 100 µM
- TGI (SK-OV-3 ovarian): > 100 µM
- TGI (MALME-3M melanoma): > 100 µM
- TGI (OVCAR-5 ovarian): > 100 µM
- TGI (A549 NSCLC): > 100 µM
- TGI (HOP-92 NSCLC): > 100 µM
